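Test compounds were applied to cells in 96-well plates for 48 hours at 5 doses. GI50 is the concentration that inhibits growth by half. TGI: total growth inhibition.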
Key:
Assay in all cases: inhibition of tumour cell growth, NCI panel, 48 h
ACHN renal = system: ACHN renal
MDA-MB-468 breast = system: MDA-MB-468 breast
COLO 205 colon = system: COLO 205 colon
NCI-H226 lung = system: NCI-H226 lung
SK-MEL-28 melanoma = system: SK-MEL-28 melanoma
EKVX NSCLC = system: EKVX NSCLC
HT29 colon = system: HT29 colon
KM12 colon = system: KM12 colon
OVCAR-5 ovarian = system: OVCAR-5 ovarian
IGROV1 ovarian = system: IGROV1 ovarian
U251 CNS = system: U251 CNS
OVCAR-3 ovarian = system: OVCAR-3 ovarian
TK-10 renal = system: TK-10 renal
SK-MEL-5 melanoma = system: SK-MEL-5 melanoma
SF-268 CNS = system: SF-268 CNS
UO-31 renal = system: UO-31 renal
SF-539 CNS = system: SF-539 CNS
BT-549 breast = system: BT-549 breast
SNB-75 CNS = system: SNB-75 CNS
M14 melanoma = system: M14 melanoma
A498 renal = system: A498 renal
SF-295 CNS = system: SF-295 CNS
NCI/ADR-RES ovarian = system: NCI/ADR-RES ovarian
NCI-H460 lung = system: NCI-H460 lung
HCT-15 colon = system: HCT-15 colon
SNB-19 CNS = system: SNB-19 CNS
T-47D breast = system: T-47D breast
PC-3 prostate = system: PC-3 prostate
MOLT-4 leukemia = system: MOLT-4 leukemia
CAKI-1 renal = system: CAKI-1 renal
HL-60(TB) leukemia = system: HL-60(TB) leukemia
HCT-116 colon = system: HCT-116 colon
K-562 leukemia = system: K-562 leukemia
NCI-H23 lung = system: NCI-H23 lung
UACC-62 melanoma = system: UACC-62 melanoma
LOX IMVI melanoma = system: LOX IMVI melanoma
OVCAR-4 ovarian = system: OVCAR-4 ovarian
A549 NSCLC = system: A549 NSCLC
MCF7 breast = system: MCF7 breast
DU-145 prostate = system: DU-145 prostate
MDA-MB-435 = system: MDA-MB-435
CCRF-CEM leukemia = system: CCRF-CEM leukemia
MALME-3M melanoma = system: MALME-3M melanoma
SK-MEL-2 melanoma = system: SK-MEL-2 melanoma
SK-OV-3 ovarian = system: SK-OV-3 ovarian
HOP-92 NSCLC = system: HOP-92 NSCLC
HOP-62 NSCLC = system: HOP-62 NSCLC
SN12C renal = system: SN12C renal
SW-620 colon = system: SW-620 colon
MDA-MB-231 breast = system: MDA-MB-231 breast
RPMI-8226 leukemia = system: RPMI-8226 leukemia
NCI-H522 lung = system: NCI-H522 lung
RXF 393 renal = system: RXF 393 renal
786-0 renal = system: 786-0 renal
SR leukemia = system: SR leukemia
HS 578T breast = system: HS 578T breast
HCC-2998 colon = system: HCC-2998 colon
UACC-257 melanoma = system: UACC-257 melanoma
OVCAR-8 ovarian = system: OVCAR-8 ovarian

NS(=O)(=O)c1cccc(Nc2nc(SCC(=O)c3ccc(F)cc3)nc3ccccc23)c1
GI50 (ACHN renal): 24.7 µM
TGI (ACHN renal): > 57.7 µM
GI50 (MDA-MB-468 breast): 6.23 µM
TGI (MDA-MB-468 breast): 42.8 µM
GI50 (COLO 205 colon): 26.8 µM
TGI (COLO 205 colon): > 57.7 µM
GI50 (NCI-H226 lung): 12.1 µM
TGI (NCI-H226 lung): > 57.7 µM
GI50 (SK-MEL-28 melanoma): 20.4 µM
TGI (SK-MEL-28 melanoma): > 57.7 µM
GI50 (EKVX NSCLC): 18.4 µM
TGI (EKVX NSCLC): > 57.7 µM
GI50 (HT29 colon): 20 µM
TGI (HT29 colon): > 57.7 µM
GI50 (KM12 colon): 7.42 µM
TGI (KM12 colon): > 57.7 µM
GI50 (OVCAR-5 ovarian): 24.5 µM
TGI (OVCAR-5 ovarian): > 57.7 µM
GI50 (IGROV1 ovarian): 9.82 µM
TGI (IGROV1 ovarian): > 57.7 µM
GI50 (U251 CNS): 18.6 µM
TGI (U251 CNS): > 57.7 µM
GI50 (OVCAR-3 ovarian): 12.9 µM
TGI (OVCAR-3 ovarian): > 57.7 µM
GI50 (TK-10 renal): > 57.7 µM
TGI (TK-10 renal): > 57.7 µM
GI50 (SK-MEL-5 melanoma): 12.9 µM
TGI (SK-MEL-5 melanoma): 54.6 µM
GI50 (SF-268 CNS): 21 µM
TGI (SF-268 CNS): > 57.7 µM
GI50 (UO-31 renal): 15.5 µM
TGI (UO-31 renal): > 57.7 µM
GI50 (SF-539 CNS): 20 µM
TGI (SF-539 CNS): > 57.7 µM
GI50 (BT-549 breast): 31.3 µM
TGI (BT-549 breast): > 57.7 µM
GI50 (SNB-75 CNS): 3.64 µM
TGI (SNB-75 CNS): > 57.7 µM
GI50 (M14 melanoma): 27.2 µM
TGI (M14 melanoma): > 57.7 µM
GI50 (A498 renal): > 57.7 µM
TGI (A498 renal): > 57.7 µM
GI50 (SF-295 CNS): 14.6 µM
TGI (SF-295 CNS): > 57.7 µM
GI50 (NCI/ADR-RES ovarian): 37.3 µM
TGI (NCI/ADR-RES ovarian): > 57.7 µM
GI50 (NCI-H460 lung): 15.1 µM
TGI (NCI-H460 lung): > 57.7 µM
GI50 (HCT-15 colon): 11.6 µM
TGI (HCT-15 colon): > 57.7 µM
GI50 (SNB-19 CNS): 22.3 µM
TGI (SNB-19 CNS): > 57.7 µM
GI50 (T-47D breast): 3.18 µM
TGI (T-47D breast): > 57.7 µM
GI50 (PC-3 prostate): 16.8 µM
TGI (PC-3 prostate): > 57.7 µM
GI50 (MOLT-4 leukemia): 7.43 µM
TGI (MOLT-4 leukemia): 41.3 µM
GI50 (CAKI-1 renal): 13.1 µM
TGI (CAKI-1 renal): > 57.7 µM
GI50 (HL-60(TB) leukemia): 15 µM
TGI (HL-60(TB) leukemia): 48.9 µM
GI50 (HCT-116 colon): 15.3 µM
TGI (HCT-116 colon): > 57.7 µM
GI50 (K-562 leukemia): 13 µM
TGI (K-562 leukemia): > 57.7 µM
GI50 (NCI-H23 lung): 16.5 µM
TGI (NCI-H23 lung): > 57.7 µM
GI50 (UACC-62 melanoma): 13.7 µM
TGI (UACC-62 melanoma): > 57.7 µM
GI50 (LOX IMVI melanoma): 14.3 µM
TGI (LOX IMVI melanoma): > 57.7 µM
GI50 (OVCAR-4 ovarian): 9.34 µM
TGI (OVCAR-4 ovarian): > 57.7 µM
GI50 (A549 NSCLC): 26.8 µM
TGI (A549 NSCLC): > 57.7 µM
GI50 (MCF7 breast): 3.81 µM
TGI (MCF7 breast): > 57.7 µM
GI50 (DU-145 prostate): 19.9 µM
TGI (DU-145 prostate): > 57.7 µM
GI50 (MDA-MB-435): 14.2 µM
TGI (MDA-MB-435): > 57.7 µM
GI50 (CCRF-CEM leukemia): 7.76 µM
TGI (CCRF-CEM leukemia): > 57.7 µM
GI50 (MALME-3M melanoma): 27.1 µM
TGI (MALME-3M melanoma): > 57.7 µM
GI50 (SK-MEL-2 melanoma): 13.5 µM
TGI (SK-MEL-2 melanoma): > 57.7 µM
GI50 (SK-OV-3 ovarian): 30.4 µM
TGI (SK-OV-3 ovarian): > 57.7 µM
GI50 (HOP-92 NSCLC): 16.4 µM
TGI (HOP-92 NSCLC): > 57.7 µM
GI50 (HOP-62 NSCLC): 22.2 µM
TGI (HOP-62 NSCLC): > 57.7 µM
GI50 (SN12C renal): 17.6 µM
TGI (SN12C renal): > 57.7 µM
GI50 (SW-620 colon): 18.1 µM
TGI (SW-620 colon): > 57.7 µM
GI50 (MDA-MB-231 breast): 15.9 µM
TGI (MDA-MB-231 breast): > 57.7 µM
GI50 (RPMI-8226 leukemia): 12.7 µM
TGI (RPMI-8226 leukemia): > 57.7 µM
GI50 (NCI-H522 lung): 11.7 µM
TGI (NCI-H522 lung): 54.3 µM
GI50 (RXF 393 renal): 16.5 µM
TGI (RXF 393 renal): > 57.7 µM
GI50 (786-0 renal): 39.1 µM
TGI (786-0 renal): > 57.7 µM
GI50 (SR leukemia): 15.9 µM
TGI (SR leukemia): > 57.7 µM
GI50 (HS 578T breast): 12.9 µM
TGI (HS 578T breast): > 57.7 µM
GI50 (HCC-2998 colon): 15.7 µM
TGI (HCC-2998 colon): > 57.7 µM
GI50 (UACC-257 melanoma): 23.4 µM
TGI (UACC-257 melanoma): > 57.7 µM
GI50 (OVCAR-8 ovarian): 19.6 µM
TGI (OVCAR-8 ovarian): > 57.7 µM

From PubChem BioAssay (NCI)
